Results taken from the supplement of paper PMC10307832.

Columns and labels:
Experiment in all cases: relative viability (nuclei count vs DMSO), 5 days (fraction); higher = more cells survive
[1] = compound: CC(C)C[C@H](NC(=O)[C@H](CCc1ccccc1)NC(=O)CN1CCOCC1)C(=O)N[C@@H](Cc1ccccc1)C(=O)N[C@@H](CC(C)C)C(=O)[C@@]1(C)CO1 [Carfilzomib] + CC(=O)Nc1cccc(-n2c(=O)n(C3CC3)c(=O)c3c(Nc4ccc(I)cc4F)n(C)c(=O)c(C)c32)c1 [Trametinib] (partner 0.02 µM)
Procedure, shortened: (§1)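 Lung cancer cell lines in 1536-well plates got either a single drug or a fixed anchor-drug dose together with five library-drug doses (not always all listed) in √10 steps, by pin tool, on the day after seeding. Nuclei were counted after 5 days, and relative viability is the treated-to-vehicle ratio of nuclei counts. Values are medians of duplicate plates.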

[2] = compound: C[C@@H](Oc1cc(-c2cnn(C3CCNCC3)c2)cnc1N)c1c(Cl)ccc(F)c1Cl [Crizotinib] + CS(=O)(=O)N1CCN(Cc2cc3nc(-c4cccc5[nH]ncc45)nc(N4CCOCC4)c3s2)CC1 [Pictilisib] (partner 1 µM)
Procedure, shortened: as §1

[3] = compound: CC(C)C[C@H](NC(=O)[C@H](CCc1ccccc1)NC(=O)CN1CCOCC1)C(=O)N[C@@H](Cc1ccccc1)C(=O)N[C@@H](CC(C)C)C(=O)[C@@]1(C)CO1 [Carfilzomib] + COc1cc2c(Oc3ccc(NC(=O)C4(C(=O)Nc5ccc(F)cc5)CC4)cc3F)ccnc2cc1OCCCN1CCOCC1 [Foretinib] (partner 0.25 µM)
Procedure, shortened: as §1

[4] = compound: CC(C)C[C@H](NC(=O)[C@H](CCc1ccccc1)NC(=O)CN1CCOCC1)C(=O)N[C@@H](Cc1ccccc1)C(=O)N[C@@H](CC(C)C)C(=O)[C@@]1(C)CO1 [Carfilzomib] + NC(=O)Nc1cc(-c2cccc(F)c2)sc1C(=O)N[C@H]1CCCNC1 [AZD7762] (partner 0.2 µM)
Procedure, shortened: as §1

Cell Line | relative viability ([1]; first compound 0.001 µM) | relative viability ([1]; first compound 0.003162 µM) | relative viability ([1]; first compound 0.01 µM) | relative viability ([1]; first compound 0.03162 µM) | relative viability ([1]; first compound 0.1 µM) | relative viability ([2]; first compound 0.01 µM) | relative viability ([2]; first compound 0.03162 µM) | relative viability ([2]; first compound 0.1 µM) | relative viability ([2]; first compound 0.3162 µM) | relative viability ([2]; first compound 1 µM) | relative viability ([3]; first compound 0.001 µM) | relative viability ([3]; first compound 0.003162 µM) | relative viability ([3]; first compound 0.01 µM) | relative viability ([3]; first compound 0.03162 µM) | relative viability ([3]; first compound 0.1 µM) | relative viability ([4]; first compound 0.001 µM) | relative viability ([4]; first compound 0.003162 µM) | relative viability ([4]; first compound 0.01 µM) | relative viability ([4]; first compound 0.03162 µM) | relative viability ([4]; first compound 0.1 µM)
HCC-78 | 0.672 | 0.849 | 0.69 | 0.597 | 0.255 | 0.204 | 0.206 | 0.205 | 0.167 | 0.204 | 0.541 | 0.576 | 0.581 | 0.571 | 0.322 | 0.505 | 0.772 | 0.789 | 0.492 | 0.311
HCC-366 | 0.345 | 0.388 | 0.405 | 0.293 | 0.0458 | 0.101 | 0.141 | 0.183 | 0.11 | 0.17 | 0.933 | 0.963 | 0.916 | 0.648 | 0.121 | 0.231 | 0.276 | 0.251 | 0.419 | 0.212
HCC-827 | 0.566 | 0.542 | 0.534 | 0.491 | 0.191 | 1.1 | 1.03 | 0.943 | 0.96 | 0.961 | 1.09 | 1.06 | 1.08 | 0.928 | 0.387 | 0.194 | 0.202 | 0.207 | 0.201 | 0.17
IA-LM | – | – | – | – | – | 0.34 | 0.331 | 0.353 | 0.343 | 0.305 | 1.22 | 1.23 | 0.899 | 0.0144 | 0.0167 | – | – | – | – | –
NCI-H520 | 0.531 | 0.697 | 0.598 | 0.124 | 0.134 | 0.261 | 0.333 | 0.303 | 0.319 | 0.251 | 0.781 | 0.999 | 0.695 | 0.17 | 0.203 | – | – | – | – | –
NCI-H522 | 0.777 | 0.767 | 0.815 | 0.506 | 0.336 | – | – | – | – | – | – | – | – | – | – | 0.782 | 0.901 | 0.925 | 0.428 | 0.337
NCI-H661 | 0.642 | 0.635 | 0.599 | 0.526 | 0.276 | 0.379 | 0.349 | 0.383 | 0.378 | 0.36 | 1.05 | 1.16 | 1.07 | 1.06 | 0.377 | – | – | – | – | –
NCI-H1299 | – | – | – | – | – | 0.827 | 0.647 | 0.728 | 0.718 | 0.909 | 1.03 | 1.02 | 1.14 | 0.597 | 0.117 | – | – | – | – | –
NCI-H1563 | – | – | – | – | – | 0.527 | 0.594 | 0.628 | 0.555 | 0.652 | 0.927 | 1.08 | 0.968 | 0.828 | 0.517 | – | – | – | – | –
NCI-H1623 | – | – | – | – | – | – | – | – | – | – | 0.838 | 0.906 | 1.14 | 0.455 | 0.514 | – | – | – | – | –
NCI-H1648 | 0.685 | 0.566 | 0.592 | 0.394 | 0.261 | – | – | – | – | – | – | – | – | – | – | 0.657 | 0.621 | 0.603 | 0.407 | 0.268
NCI-H1650 | 0.487 | 0.537 | 0.52 | 0.103 | 0.1 | 0.516 | 0.584 | 0.573 | 0.535 | 0.559 | 1.22 | 0.965 | 0.954 | 0.125 | 0.321 | – | – | – | – | –
